From article PMC8677773, “Comprehensive exploration of chemical space using trisubstituted carboranes” (Scientific Reports, 2021)

System: recombinant rabies virus strain 1088 expressing gaussia luciferase (1088/GLuc)
Experiment: microbe, parasite or virus in culture
Type: cell-based
Details: Lyssavirus rabies, N2a, 72 h, read-out: RABV IC50 (concentration required to inhibit the relative light units by 50%)

NC(=O)c1nc(F)c[nH]c1=O [Favipiravir]
IC50: 38 µM
